Assay results: patent US11279728B2, “Broad spectrum viral inhibitor” (Albert Einstein College of Medicine, priority 2017, dated 2022)
Entries after “also recorded” stand apart in the source; their conditions may differ.

T1: Rattus norvegicus (residues 51-361) viperin (Rvip) (Rattus norvegicus, UniProt O70600)
T1 sequence (O70600 51-360 limits assumed): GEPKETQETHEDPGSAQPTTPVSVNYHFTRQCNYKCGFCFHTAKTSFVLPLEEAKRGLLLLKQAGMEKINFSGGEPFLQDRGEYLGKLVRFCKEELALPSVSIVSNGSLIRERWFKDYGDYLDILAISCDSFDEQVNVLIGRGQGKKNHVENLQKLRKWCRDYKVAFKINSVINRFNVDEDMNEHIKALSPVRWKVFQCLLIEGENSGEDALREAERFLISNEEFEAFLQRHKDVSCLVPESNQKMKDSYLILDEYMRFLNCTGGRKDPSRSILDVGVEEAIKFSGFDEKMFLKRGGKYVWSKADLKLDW

B1: Rattus norvegicus (residues 51-361) viperin (Rvip) (Rattus norvegicus) (protein)
chain: T1 sequence (O70600 51-360 limits assumed)

Columns and labels:
[1] = biological target: T1, Rattus norvegicus (residues 51-361) viperin (Rvip); test: In vitro characterization of viperin (Rvip) activity: 5′dA formation / ddhCTP production; details: 50 μM Rvip, 2 mM SAM, 1 mM nucleotide, 5 mM dithionite, 4 min
Dengue virus (DV) RdRp = Dengue virus (DV) RdRp (Dengue virus type 2, UniProt P29990); test: DV RdRp primed-template (primer extension) assay; assay type: biochemical; details: for incorporation by DV RdRp on addition to the extended primer: direct incorporation, primed-template assay; for inhibition of DV RdRp-catalyzed production of full-length RNA: in competition with natural ribonucleotides, increasing concentrations (1, 10, 100 and 300 μM); for chain termination of DV RdRp-catalyzed RNA synthesis: once incorporated, only a 16-nt product (n+1)
Chain of Dengue virus (DV) RdRp (P29990 2492-3391 limits assumed): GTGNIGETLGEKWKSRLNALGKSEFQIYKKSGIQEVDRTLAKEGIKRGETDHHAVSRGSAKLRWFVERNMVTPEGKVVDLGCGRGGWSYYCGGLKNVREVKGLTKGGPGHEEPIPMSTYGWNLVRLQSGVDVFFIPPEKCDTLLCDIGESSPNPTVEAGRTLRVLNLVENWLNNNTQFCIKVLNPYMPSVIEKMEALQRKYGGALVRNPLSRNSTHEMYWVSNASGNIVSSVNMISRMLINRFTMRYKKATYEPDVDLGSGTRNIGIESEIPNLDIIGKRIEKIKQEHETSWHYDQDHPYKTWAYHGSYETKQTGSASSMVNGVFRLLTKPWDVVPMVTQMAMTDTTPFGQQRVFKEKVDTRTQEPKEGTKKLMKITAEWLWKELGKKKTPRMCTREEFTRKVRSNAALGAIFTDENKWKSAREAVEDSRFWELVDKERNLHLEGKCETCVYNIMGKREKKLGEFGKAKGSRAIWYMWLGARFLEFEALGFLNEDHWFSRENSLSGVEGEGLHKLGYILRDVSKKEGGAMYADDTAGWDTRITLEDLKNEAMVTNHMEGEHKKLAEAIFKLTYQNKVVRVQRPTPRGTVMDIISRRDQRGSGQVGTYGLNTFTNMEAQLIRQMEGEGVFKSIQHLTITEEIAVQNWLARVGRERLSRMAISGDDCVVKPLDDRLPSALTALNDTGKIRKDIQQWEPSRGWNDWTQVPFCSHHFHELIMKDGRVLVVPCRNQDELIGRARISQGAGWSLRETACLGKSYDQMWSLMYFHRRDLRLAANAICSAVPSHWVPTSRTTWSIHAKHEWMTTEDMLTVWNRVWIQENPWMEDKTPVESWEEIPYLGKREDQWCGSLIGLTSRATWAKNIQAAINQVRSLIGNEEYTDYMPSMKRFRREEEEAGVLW
Text: FIG. 6(A)-6(B): DV RdRp-catalyzed RNA synthesis is inhibited by ddhCTP by a chain termination mechanism. A. Schematic of primer extension assay for evaluating DV RdRp activity. Elongation complexes are first assembled with a trinucleotide primer, 5′-pGGC (SEQ ID NO:1), and 20-nt RNA template (SEQ ID NO:2) in the presence of ATP and GTP to elongate the trinucleotide primer (extended primer; SEQ ID NO:3)) and position the enzyme on the template (SEQ ID NO:2) such that guanosine is in the first templating position (underlined). In the presence of CTP and UTP, DV RdRp catalyzes RNA synthesis to the end of the template (SEQ ID NO:5). […] B. Increasing concentrations of ddhCTP (1, 10, 100 and 300 μM) inhibits DV RdRp-catalyzed RNA synthesis. Reaction products resolved by denaturing PAGE from DV RdRp-catalyzed nucleoside incorporation in the presence of increasing concentrations of either ddhCTP or 3′-dCTP. In the absence of ddhCTP and 3′-dCTP, DV RdRp efficiently catalyzes RNA synthesis to the end of the template creating a 20-nt RNA product (n+5, lanes 2 and 8).
Molecular target for ddhCTP: Viperin is induced by both DNA and RNA viruses (8,44-51). However, the presence of a 2′-OH on ddhCTP should almost certainly preclude efficient utilization by DNA polymerases, viral or cellular. (52) In contrast, 3′-deoxyribonucleotides are well known inhibitors of viral RNA-dependent RNA polymerases (RdRps)(53). Because Dengue virus (DV) and other members of the Flavivirus family are known to be sensitive to viperin, we used the DV RdRp as our model to examine the effect of ddhCTP on RdRp activity. First, it was asked if ddhCTP is a substrate for DV RdRp. To do so, a previously described primed-template assay was used. (54) A trinucleotide is used to prime RNA synthesis in the presence of two ^32P-labeled rNTPs, producing a 15-nt product that is referred to here as the extended primer. […] Addition of UTP to the CMP-incorporated RNA led to further extension to the end of template. […] A more stringent test of chain terminator effectiveness is whether it can directly compete with natural ribonucleotides. […] The reduced efficacy of ddhCTP must be caused by the double bond between the 3′ and 4′ positions, and the corresponding impact on the detailed ribose conformation, as this is the only difference between ddhCTP and 3′-dCTP. The phylogeny of viral RdRp genes classifies these enzymes into three supergroups (55), with Flaviviral RdRps belonging to supergroup II. To determine if the observations with DV RdRp extend to other supergroups, we evaluated a member of supergroup I. Specifically, the RdRp from human rhinovirus type C (HRV-C) was used, a member of the Picornavirus family. […] However, in the presence of other rNTPs, HRV-C RdRp was not inhibited by ddhCTP, even though it was inhibited by 3′-dCTP.
Addition of UTP to the CMP-incorporated RNA, as expected, led to further extension to the end of template.

[2] = system: RdRp from human rhinovirus type C (HRV-C); test: HRV-C RdRp incorporation and inhibition; assay type: biochemical; details: for utilization by HRV-C RdRp: direct-incorporation experiments; for inhibition of HRV-C RdRp: in the presence of other rNTPs
poliovirus (PV) RdRp = poliovirus (PV) RdRp (Poliovirus type 1, UniProt P03300); assay type: biochemical
Chain of poliovirus (PV) RdRp (P03300 1749-2209 limits assumed): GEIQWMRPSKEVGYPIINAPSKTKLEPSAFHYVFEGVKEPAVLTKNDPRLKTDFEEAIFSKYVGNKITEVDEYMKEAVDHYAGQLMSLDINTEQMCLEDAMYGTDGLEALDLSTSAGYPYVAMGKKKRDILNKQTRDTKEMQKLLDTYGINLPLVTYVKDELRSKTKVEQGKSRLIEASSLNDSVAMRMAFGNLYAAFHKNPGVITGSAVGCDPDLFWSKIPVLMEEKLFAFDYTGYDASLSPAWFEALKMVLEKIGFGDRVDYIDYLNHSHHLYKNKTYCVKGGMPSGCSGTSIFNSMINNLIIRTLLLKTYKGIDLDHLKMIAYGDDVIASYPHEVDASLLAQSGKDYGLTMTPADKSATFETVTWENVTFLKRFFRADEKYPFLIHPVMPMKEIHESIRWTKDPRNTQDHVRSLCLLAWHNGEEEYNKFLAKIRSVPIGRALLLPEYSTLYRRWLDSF

Vero cells = test: Vero cell viability (ddhC cytotoxicity); assay type: cell-based; details: incubation with 1 mM ddhC
[3] = system: ZIKV (MR766, PRVABC59, R103451); test: ZIKV replication and release from Vero cells
Zika virus (ZIKV) RdRp = Zika virus (ZIKV) RdRp (Zika virus, UniProt Q32ZE1); test: ZIKV RdRp inhibition by ddhCTP; assay type: biochemical
Chain of Zika virus (ZIKV) RdRp (Q32ZE1 2517-3419): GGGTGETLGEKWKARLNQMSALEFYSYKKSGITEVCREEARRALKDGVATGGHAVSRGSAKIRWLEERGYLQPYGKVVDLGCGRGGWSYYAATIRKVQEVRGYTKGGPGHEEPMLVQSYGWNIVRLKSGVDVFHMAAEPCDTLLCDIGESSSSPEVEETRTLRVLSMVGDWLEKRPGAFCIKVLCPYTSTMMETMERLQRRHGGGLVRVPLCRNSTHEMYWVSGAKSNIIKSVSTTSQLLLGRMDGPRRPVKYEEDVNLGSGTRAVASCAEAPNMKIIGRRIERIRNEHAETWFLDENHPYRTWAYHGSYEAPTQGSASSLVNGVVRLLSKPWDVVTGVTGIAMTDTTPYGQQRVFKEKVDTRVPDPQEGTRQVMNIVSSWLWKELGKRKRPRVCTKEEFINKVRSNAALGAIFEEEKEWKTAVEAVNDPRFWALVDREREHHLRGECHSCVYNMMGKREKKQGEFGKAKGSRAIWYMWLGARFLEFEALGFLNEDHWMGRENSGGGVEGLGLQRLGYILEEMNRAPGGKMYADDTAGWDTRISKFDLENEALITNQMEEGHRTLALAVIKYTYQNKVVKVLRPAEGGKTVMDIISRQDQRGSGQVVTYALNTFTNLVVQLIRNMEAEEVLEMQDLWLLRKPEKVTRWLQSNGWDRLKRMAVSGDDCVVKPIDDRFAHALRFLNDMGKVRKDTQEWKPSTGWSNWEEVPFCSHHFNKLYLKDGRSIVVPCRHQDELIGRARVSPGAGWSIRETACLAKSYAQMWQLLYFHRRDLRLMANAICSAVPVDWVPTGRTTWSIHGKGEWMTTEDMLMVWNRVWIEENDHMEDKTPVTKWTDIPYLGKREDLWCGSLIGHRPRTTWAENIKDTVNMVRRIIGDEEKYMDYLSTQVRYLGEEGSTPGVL

HCV RdRp = HCV RdRp (Hepatitis C virus genotype 1a, UniProt P27958); test: HCV RdRp inhibition by ddhCTP
Chain of HCV RdRp (P27958 2421-3011): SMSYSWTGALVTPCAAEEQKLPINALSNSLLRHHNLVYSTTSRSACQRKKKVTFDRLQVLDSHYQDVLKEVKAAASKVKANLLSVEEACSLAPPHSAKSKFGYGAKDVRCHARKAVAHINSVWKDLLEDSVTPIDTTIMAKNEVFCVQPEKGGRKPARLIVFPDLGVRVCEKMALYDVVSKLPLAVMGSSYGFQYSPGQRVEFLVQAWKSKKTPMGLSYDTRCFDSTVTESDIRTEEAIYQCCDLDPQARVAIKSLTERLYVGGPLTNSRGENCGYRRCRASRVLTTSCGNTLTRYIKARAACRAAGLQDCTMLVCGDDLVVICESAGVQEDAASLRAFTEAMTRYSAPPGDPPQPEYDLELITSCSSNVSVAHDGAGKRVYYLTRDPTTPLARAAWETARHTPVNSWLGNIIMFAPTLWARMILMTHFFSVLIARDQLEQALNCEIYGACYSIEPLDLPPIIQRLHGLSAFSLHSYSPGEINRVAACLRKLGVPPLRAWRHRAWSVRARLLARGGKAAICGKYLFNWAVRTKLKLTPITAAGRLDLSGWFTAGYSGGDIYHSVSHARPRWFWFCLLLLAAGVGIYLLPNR

[4] = substrate: Nc1ccn([C@@H]2O[C@H](COP(=O)(O)OP(=O)(O)OP(=O)(O)O)[C@@H](O)[C@H]2O)c(=O)n1; test: purified protein, by the assay type; details: other: CTP as substrate of Rvip, 37.0 °C

| Molecule | incorporation by DV RdRp on addition to the extended primer (Dengue virus (DV) RdRp) | inhibition of DV RdRp-catalyzed production of full-length RNA (Dengue virus (DV) RdRp) | chain termination of DV RdRp-catalyzed RNA synthesis (Dengue virus (DV) RdRp) | utilization by HRV-C RdRp [2] | inhibition of HRV-C RdRp [2] | inhibition of PV RdRp (poliovirus (PV) RdRp) | other results |
| --- | --- | --- | --- | --- | --- | --- | --- |
| Nc1ccn([C@@H]2O[C@H](COP(=O)(O)OP(=O)(O)OP(=O)(O)O)[C@@H](O)[C@H]2O)c(=O)n1 [CTP, cytidine triphosphate] | – | – | – | – | – | – | activation of 5′dA production relative to protein alone [1]: 30 fold |
| Nc1ccn([C@@H]2O[C@H](COP(=O)(O)OP(=O)(O)OP(=O)(O)O)C[C@H]2O)c(=O)n1 [3′-dCTP, reference compound] | led to incorporation | inhibited production of full-length RNA | terminate RNA synthesis | utilization | inhibited | inhibited | efficacy of inhibition of full-length RNA, 3′-dCTP compared with ddhCTP (Dengue virus (DV) RdRp; compare lane 10 to lane 4 in FIG. 6B): greater efficacy than ddhCTP |
| Nc1ccn([C@@H]2OC(CO)=C[C@H]2O)c(=O)n1 [ddhC, 3′-deoxy-3′,4′-didehydro-cytidine] | – | – | – | – | – | – | Vero cell viability (Vero cells): did not alter Vero cell viability; reduction in virus titer ([3]; ZIKV MR766, MOI of 0.1, all time points, Vero cells): 50-200 fold; reduction in virus titer ([3]; ZIKV MR766, MOI of 1.0, Vero cells): 5-50 fold; sensitivity to ddhC treatment ([3]; ZIKV PRVABC59 (Puerto Rico), Vero cells): analogous sensitivities; sensitivity to ddhC treatment ([3]; ZIKV R103451 (Honduras), Vero cells): analogous sensitivities |
| Nc1ccn([C@@H]2OC(COP(=O)(O)OP(=O)(O)OP(=O)(O)O)=C[C@@H]2O)c(=O)n1 (stereo in doubt) [ddhCTP, 3′-deoxy-3′,4′-didehydro-cytidine triphosphate] | led to incorporation | inhibits; also recorded: inhibited production of full-length RNA | terminate RNA synthesis | utilization | not inhibited; also recorded: poorly inhibited | poorly inhibited | inhibition by ddhCTP utilization and chain termination (Zika virus (ZIKV) RdRp): susceptible to inhibition; inhibition by ddhCTP utilization and chain termination (HCV RdRp): susceptible to inhibition |
| B1 | – | – | – | – | – | – | Km [4]: 183 ± 28 µM; kcat ([4]; b22 prints minutes-1): 0.185 ± 0.007 min⁻¹ |
